Where a SMILES comes first, the peptide text is derived from it. The star is where a group is joined. NH(6-Ac-2-naphthyl) = CC(=O)c1ccc2cc(N*)ccc2c1; Cbz = O=C(OCc1ccccc1)*; CH2F = FC*
Experiments:
[1] = test system: caspases (-1, -3, -6, -8 and -9); assay: In vitro selectivity against a panel of recombinant caspases; assay type: biochemical, Human; settings: probe 6 μM, uniform conditions with caspases -1, -3, -6, -8, -9, 2-h incubation at room temperature, tetrapeptide-AMC as references
Procedure: Figure 2 Photophysical and enzymatic properties of caspase probes. (a) Photophysical and kinetic properties of probes and free dyes. All measurements were taken in 50 mM HEPES, 50 mM NaCl, 0.1% CHAPS, 10 mM EDTA, 5% glycerol, 10 mM DTT, at pH = 7.2. (b) Time-dependent ratiometric fluorescence changes of C1RB (6 μM) incubated with caspase-1 (10 nM) over 2 h at room temperature. Data were obtained by plotting the normalized ratio of fluorescence intensity at 500 nm (F500 nm) over that at 450 nm (F450 nm). (Inset) time-dependent fluorescence emission spectra with λex = 350 nm. (c) Time-dependent “Turn-ON” effect of C1FS (6 μM) incubated with caspase-1 (10 nM) measured and normalized at 460 nm (F460 nm) over 2 h at room temperature, with the corresponding fluorescence emission spectra (inset). λex = 350 nm. […] S and N represent the fluorescence emission intensity of each reaction solution in the presence (S) and absence (N) of caspase-1. […] Normalized, relative fluorescence (RFU) values were obtained after 2-h incubation at room temperature. […]
Enzyme kinetics. […] Detailed kinetic properties of these probes were measured with target recombinant caspases using commercial tetrapeptide-AMC fluorogenic substrates as references at 25 °C in 384-well plates (Greiner Bio-One #781900). […]
shaking at 150 rpm for 24 h at 25 °C, a small portion of the reaction was analyzed by LC-MS (IT-TOF). […]

[2] = not given; remark: listed apart in the source
[3] = not given; remark: listed apart in the source
[4] = test system: NIH/3T3, BV2 and HeLa cells; assay: XTT cytotoxicity assay; assay type: cell-based, mouse, human; settings: XTT assay, 12, 30, 60, 120 μM, 24 h
Procedure: Supplementary Figure 4. Cytotoxicity of two-photon enzymatic probes (12, 30, 60, 120 μM) in mammalian cells (NIH/3T3, BV2 and HeLa) after incubation for 24 h, as determined by XTT assay. […]
Detection of caspase activities in mammalian cells and tissues
Cell culture. The mouse embryonic fibroblast cell line (NIH/3T3), mouse microglial cell line (BV2) and human epithelial carcinoma cell line (HeLa) used in our experiments were cultured in Dulbecco’s Modified Eagle's Medium (DMEM) supplemented with 10% (for NIH/3T3 and HeLa) or 5% (for BV2) fetal bovine serum (FBS), 100.0 mg/L streptomycin and 100 IU/mL penicillin in a humidified atmosphere of 5% CO2 at 37 °C.
XTT assay. The cytotoxicity of our probes was determined by using the XTT colorimetric cell proliferation kit (Roche) following manufacturer’s guidelines. Briefly, NIH/3T3, BV2 and HeLa cells were seeded in 20~30% confluency (since they will reach >50% confluency within 24 h) into 96-well plates and incubated overnight before the addition of probes with concentrations of 12 μM, 30 μM, 60 μM and 120 μM, respectively. Probes were applied from DMSO stocks whereby DMSO never exceeded 1% in the final solution. The same volume of DMSO was used as a negative control; and the same volume of STS (200 nM) was used as a positive control. After a total treatment time of 24 h, proliferation was assayed using the XTT assay (Supplementary Fig. 4). […]

[5] = test system: caspase-3-like activities in STS-induced BV2 and HeLa cells; assay: TPFM live-cell imaging of STS-induced apoptotic cells; assay type: cell-based, mouse, human
Procedure: Figure 3 Bioimaging of active caspases in live cells. TPFM (λex = 760 nm; λem = 480-550 nm for all AAN-probes) of STS-induced (a) BV2 cells (2 μM, 4 h) and (b) HeLa cells (1 μM, 4 h) using C3RA/C8RA (24 μM, 1 h). Panels 3/6: cells pretreated with Z-VAD(OMe)-FMK (50 μM, 1 h) before STS addition. Panels 1/4: normal cells (DMSO). (c) WB analysis of cleaved caspase-3/-8 from (a,b). (d) TPFM of normal/apoptotic Hela cells imaged by C3RA (24 μM, up) or Ac-DEVD-AMC (40 μM, down; λem = 420–500 nm). Panels 1/3: normal cells. Panels 2/4: STS-induced cells (1 μM, 4 h). Bottom inset: bright field. Top inset: one-photon images (λex = 405 nm). (e) Real-time imaging of caspase-3/-8-like activities in live BV2 cells using 24 μM of C3RA (top)/C8RA (bottom) upon STS (2 μM) stimulation over 2 h. (f) Graphical quantification of RFU extracted from (e). (g) WB analysis of time-dependent caspase-3/-8 cleavage from STS-induced (2 μM) BV2 lysates. (h) WB analysis of time-dependent caspase-3/-7/-8 activation by detection of cleaved caspase-3/-7/-8 from lysates of HeLa cells stimulated with STS (2 μM). (i) RFU from real-time imaging of caspase-3-like activity in live HeLa cells with C3RA/C3RM/C3RE (24 μM, added 1 h before STS) upon STS (2 μM) stimulation. (j) Representative images (t = 60 min) from (i). (k) IF of STS-stimulated (2 μM, 2 h) HeLa cells by anti-caspase-3 (p17) antibody (red) with 3D projections of z-stack images at 90° view and merged with MitoTracker (green, left) or ER tracker (cyan, right). (l) TPFM of caspase-1 activation in primary cortical neurons upon glucose deprivation (GD, 8 h) followed by 1-h incubation with C1RB (24 μM) or C1FS (12 μM; λem = 450–550 nm). Inset: bright field images. NC: neuron cells incubated in normal neurobasal medium. Scale bar = 10 μm in all images.
NIH/3T3, HeLa and BV2 cell lines used in our experiments were cultured in DMEM medium supplemented with 10% (for NIH/3T3 and HeLa) or 5% (for BV2) fetal bovine serum (FBS), with 100.0 mg/L streptomycin and 100 IU/mL penicillin. […]

| Compound | probe selectivity profile towards intended caspase [1] | λem (emission maximum) [nm] | λex (absorption/excitation maximum) [2] [nm] | δΦ (two-photon action cross-section) [3] [GM] | cytotoxicity [4] | fluorescence properties for imaging caspase-3-like activities under two-photon settings, compared to C3RA ([5]; live HeLa cells, STS 1 μM 4 h, 40 μM, λex 760 nm) | effect of inhibitor on C3RA fluorescence in STS-induced cells ([5]; inhibitor 50 μM, 1 h before STS, BV2 and HeLa cells, C3RA 24 μM) |
| --- | --- | --- | --- | --- | --- | --- | --- |
| CC[C@H](C)[C@H](NC(=O)[C@H](CCC(=O)O)NC(=O)[C@@H](NC(C)=O)C(C)C)C(=O)N[C@@H](CC(=O)O)C(=O)Nc1ccc2cc(C(C)=O)ccc2c1 [C6RA, Ac-VEID-AAN] (Ac-VEID-{NH(6-Ac-2-naphthyl)}) | comparatively poor selectivity profiles | 448 | 316 | 1.8 |  |  |  |
| CC(=O)N[C@@H](CC(C)C)C(=O)N[C@@H](CCC(=O)O)C(=O)N[C@@H](Cc1c[nH]cn1)C(=O)N[C@@H](CC(=O)O)C(=O)Nc1ccc2cc(C(C)=O)ccc2c1 [C9RA, Ac-LEHD-AAN] (Ac-LEHD-{NH(6-Ac-2-naphthyl)}) | comparatively poor selectivity profiles | 448 | 316 | 3.2 |  |  |  |
| CC[C@H](C)[C@H](NC(C)=O)C(=O)N[C@@H](CCC(=O)O)C(=O)N[C@H](C(=O)N[C@@H](CC(=O)O)C(=O)Nc1ccc2cc(C(C)=O)ccc2c1)[C@@H](C)O [C8RA, Ac-IETD-AAN] (Ac-IETD-{NH(6-Ac-2-naphthyl)}) |  | 448 | 316 | 2.4 | minimally cytotoxic |  |  |
| CC(=O)N[C@@H](CC(=O)O)C(=O)N[C@@H](CCC(=O)O)C(=O)N[C@H](C(=O)N[C@@H](CC(=O)O)C(=O)Nc1ccc2c(C)cc(=O)oc2c1)C(C)C [Ac-DEVD-AMC] |  |  |  |  |  | significantly poorer fluorescence properties |  |
| Cbz-Val-Ala-Asp(OMe)-CH2F |  |  |  |  |  |  | inhibited |
| CC(=O)c1ccc2cc(NC(=O)[C@H](CC(=O)O)NC(=O)[C@@H](NC(=O)[C@H](CCC(=O)O)NC(=O)[C@H](CC(=O)O)NC(=O)CCC[P+](c3ccccc3)(c3ccccc3)c3ccccc3)C(C)C)ccc2c1 [C3RM, TPP-DEVD-AAN] |  | 448 | 317 | 1.4 | minimally cytotoxic |  |  |
| CC(=O)N[C@@H](Cc1ccc(O)cc1)C(=O)N[C@H](C(=O)N[C@@H](C)C(=O)N[C@@H](CC(=O)O)C(=O)Nc1ccc2cc(C(C)=O)ccc2c1)C(C)C |  | 448 | 316 | 6.9 |  |  |  |

— paper PMC4876444, “Two-Photon Enzymatic Probes Visualizing Sub-cellular/Deep-brain Caspase Activities in Neurodegenerative Models” (Scientific Reports, 2016)
